According to US7473700B2, “1,2,4-triazole derivatives, processes for the preparation thereof, and pharmaceutical compositions containing the same” (CJ Corporation, priority 2002, dated 2009):

Assays:
COX-1 = molecular target: T1, COX-1 (Homo sapiens, UniProt P23219); experiment: Assay for the COX-1 inhibitory activity using U-937 (PGE2 inhibition); format: cell-based; conditions: 1 μM test compound; U-937 human lymphoma cells; PGE2 after arachidonic acid; read-out: Cyclooxygenase (COX) Inhibition (%) COX-1 (1 μM)
T1 construct: host or cells: U-937 human lymphoma cells
Description: The collected cells were diluted with HBSS (×1, Hank's balanced salt solution) to a concentration of 1×10^6 cells/ml. 1 ml of the dilute cell solution was placed into each well of 12-well plates. 5 μl of 1 μM solution of a test compound in DMSO and 5 μl of DMSO as a control were added to the wells. The wells were incubated in CO2 incubator at 37° C. for 15 minutes. Separately, 10 mM stock solution of arachidonic acid in ethanol was diluted ten times in ethanol to prepare 1 mM solution of arachidonic acid. Arachidonic acid acts as a substrate. 10 μl of the 1 mM solution of arachidonic acid was added to each well and incubated at CO2 incubator at 37° C. for 30 minutes. The cell solution of each well was placed in a centrifuge test tube and centrifuged at 10,000 rpm at 4° C. for 5 minutes. The concentration of PGE2 in the collected cells and the supernatant was quantified by means of a monoclonal kit (Cayman Chemicals). The percentages of PGE2 inhibition in a group of the test compound-treated cells in relation to a group of the DMSO-treated cells were calculated. Based on the calculated values, the COX-1 inhibitory activities were evaluated.
(§1) The percentages of the COX inhibition were calculated according to the following equation: % Inhibition=(concentration of PGE2 in test compound-untreated sample−concentration of PGE2 in test compound-treated sample)/(concentration of PGE2 in test compound-untreated sample)×100

COX-2 = molecular target: T2, COX-2 (Mus musculus, UniProt Q05769); experiment: Assay for the COX-2 inhibitory activity using RAW 264.7 cell line (PGE2 inhibition); format: cell-based; conditions: RAW264.7, 10 nM test compound, RAW 264.7 cells, interferon γ and LPS, 18 hours, read-out: Cyclooxygenase (COX) Inhibition (%) COX-2 (10 nM)
T2 construct: host or cells: RAW 264.7 cells, aspirin-pretreated, then induced with interferon gamma and LPS
T2 sequence (Q05769 18-604): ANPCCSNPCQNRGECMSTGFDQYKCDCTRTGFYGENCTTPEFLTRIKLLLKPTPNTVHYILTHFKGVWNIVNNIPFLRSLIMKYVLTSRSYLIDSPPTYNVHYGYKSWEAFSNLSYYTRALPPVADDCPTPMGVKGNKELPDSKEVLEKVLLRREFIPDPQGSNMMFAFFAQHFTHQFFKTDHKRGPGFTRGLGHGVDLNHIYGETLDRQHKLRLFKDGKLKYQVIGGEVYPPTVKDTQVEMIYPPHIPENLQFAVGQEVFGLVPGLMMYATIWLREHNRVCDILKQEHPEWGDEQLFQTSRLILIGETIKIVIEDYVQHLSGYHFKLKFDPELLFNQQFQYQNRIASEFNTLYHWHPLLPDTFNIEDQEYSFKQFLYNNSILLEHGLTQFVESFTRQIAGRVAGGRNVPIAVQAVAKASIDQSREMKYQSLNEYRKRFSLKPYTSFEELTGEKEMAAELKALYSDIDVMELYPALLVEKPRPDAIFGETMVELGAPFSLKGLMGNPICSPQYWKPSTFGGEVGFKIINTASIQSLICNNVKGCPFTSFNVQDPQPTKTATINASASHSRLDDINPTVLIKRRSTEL
Description: Each well was treated with 250 μM of aspirin and incubated at 37° C. for 2 hours. After the culture media were replaced with new culture media, the new culture media were treated with a test compound (10 nM) and incubated for 30 minutes. Then, each well was treated with interferon γ (100 units/ml) and lipopolysaccharide (LPS, 100 ng/ml) and incubated for 18 hours. The culture media were transferred to other test tubes. The concentration of PGE2 was quantified by means of the EIA kit (Cayman Chemicals).
as §1

T1 sequence (P23219 24-599): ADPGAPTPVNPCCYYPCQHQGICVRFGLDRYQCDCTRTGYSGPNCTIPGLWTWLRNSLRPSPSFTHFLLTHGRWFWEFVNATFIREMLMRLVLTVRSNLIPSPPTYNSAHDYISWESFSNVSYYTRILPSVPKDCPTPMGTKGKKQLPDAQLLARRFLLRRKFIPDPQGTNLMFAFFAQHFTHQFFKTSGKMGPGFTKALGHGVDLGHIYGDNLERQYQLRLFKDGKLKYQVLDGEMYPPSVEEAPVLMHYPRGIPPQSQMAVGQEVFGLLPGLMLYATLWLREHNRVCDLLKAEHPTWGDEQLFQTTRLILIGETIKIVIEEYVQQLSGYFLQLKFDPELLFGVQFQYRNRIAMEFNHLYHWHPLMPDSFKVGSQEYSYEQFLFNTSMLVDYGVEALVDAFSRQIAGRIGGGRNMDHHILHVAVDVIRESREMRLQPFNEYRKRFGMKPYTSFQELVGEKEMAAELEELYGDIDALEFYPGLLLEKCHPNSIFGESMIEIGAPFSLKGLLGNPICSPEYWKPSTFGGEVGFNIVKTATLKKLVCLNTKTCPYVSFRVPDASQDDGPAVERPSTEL

Row | SMILES | inhibition at 1 µM (COX-1) | inhibition at 0.01 µM (COX-2)
1 | COc1ccc(-c2nc(O)nn2-c2ccc(S(N)(=O)=O)cc2)cc1 [Example 16, 4-[3-hydroxy-5-(4-methoxyphenyl)-1,2,4-triazole-1-yl]-benzenesulfonamide] | 35.5% | 11.2%
2 | CCOc1ccc(-c2nc(O)nn2-c2ccc(S(N)(=O)=O)cc2)cc1 [Example 17, 4-[3-hydroxy-5-(4-ethoxyphenyl)-1,2,4-triazole-1-yl]-benzenesulfonamide] | 48.8% | 10.5%
3 | NS(=O)(=O)c1ccc(-n2nc(O)nc2-c2ccc(F)cc2)cc1 [Example 18, 4-[3-hydroxy-5-(4-fluorophenyl)-1,2,4-triazole-1-yl]-benzenesulfonamide] | 19.5% | 6.7%
4 | NS(=O)(=O)c1ccc(-n2nc(O)nc2-c2ccc(Br)cc2)cc1 [Example 19, 4-[3-hydroxy-5-(4-bromophenyl)-1,2,4-triazole-1-yl]-benzenesulfonamide] | 37.4% | 12.3%
5 | COc1ccc(-c2nc(O)nn2-c2ccc(S(N)(=O)=O)cc2)cc1F [Example 20, 4-[3-hydroxy-5-(3-fluoro-4-methoxyphenyl)-1,2,4-triazole-1-yl]-benzenesulfonamide] | 26.4% | 11%
6 | NS(=O)(=O)c1ccc(-n2nc(S)nc2-c2ccccc2)cc1 [Example 21, 4-(3-mercapto-5-phenyl-1,2,4-triazole-1-yl)-benzenesulfonamide] | 25.7% | 12.6%
7 | CS(=O)(=O)c1ccc(-n2nc(O)nc2-c2ccccc2)cc1 [Example 22, 1-(4-methanesulfonylphenyl)-5-phenyl-1H-1,2,4-triazole-3-ol] | 11.1% | 36.4%
8 | COc1ccc(-c2nc(O)nn2-c2ccc(S(C)(=O)=O)cc2)cc1 [Example 23, 1-(4-methanesulfonylphenyl)-5-(4-methoxyphenyl)-1H-1,2,4-triazole-3-ol] | 13.2% | 35.1%
9 | COc1ccc(-c2nc(OC)nn2-c2ccc(S(N)(=O)=O)cc2)cc1 [Example 24, 4-[3-methoxy-5-(4-methoxyphenyl)-1,2,4-triazole-1-yl]-benzenesulfonamide] | 16.4% | 31.2%
10 | COc1nc(-c2ccccc2)n(-c2ccc(S(N)(=O)=O)cc2)n1 [Example 25, 4-(3-methoxy-5-phenyl-1,2,4-triazole-1-yl)-benzenesulfonamide] | 23.2% | 27.8%
11 | COc1nc(-c2ccc(F)cc2)n(-c2ccc(S(N)(=O)=O)cc2)n1 [Example 26, 4-[3-methoxy-5-(4-fluorophenyl)-1,2,4-triazole-1-yl]-benzenesulfonamide] | 44.5% | 13.5%
12 | COc1nc(-c2ccc(Br)cc2)n(-c2ccc(S(N)(=O)=O)cc2)n1 [Example 27, 4-[3-methoxy-5-(4-bromophenyl)-1,2,4-triazole-1-yl]-benzenesulfonamide] | 11.2% | 11.5%
13 | COc1nc(-c2ccc(OC)c(F)c2)n(-c2ccc(S(N)(=O)=O)cc2)n1 [Example 28, 4-[3-methoxy-5-(3-fluoro-4-methoxyphenyl)-1,2,4-triazole-1-yl]-benzenesulfonamide] | 21.2% | 10.5%
14 | CSc1nc(-c2ccccc2)n(-c2ccc(S(N)(=O)=O)cc2)n1 [Example 29, 4-(3-methylthio-5-phenyl-1,2,4-triazole-1-yl)-benzenesulfonamide] | 17.7% | 11.1%
15 | CCOc1nc(-c2ccc(OC)cc2)n(-c2ccc(S(N)(=O)=O)cc2)n1 [Example 30, 4-[3-ethoxy-5-(4-methoxyphenyl)-1,2,4-triazole-1-yl]-benzenesulfonamide] | 16.4% | 13.2%
16 | CCOc1nc(-c2ccccc2)n(-c2ccc(S(N)(=O)=O)cc2)n1 [Example 31, 4-(3-ethoxy-5-phenyl-1,2,4-triazole-1-yl)-benzenesulfonamide] | 15.5% | 16.4%
17 | CCOc1nc(-c2ccc(F)cc2)n(-c2ccc(S(N)(=O)=O)cc2)n1 [Example 32, 4-[3-ethoxy-5-(4-fluorophenyl)-1,2,4-triazole-1-yl]-benzenesulfonamide] | 21.4% | 11.5%
18 | CCOc1nc(-c2ccc(OC)c(F)c2)n(-c2ccc(S(N)(=O)=O)cc2)n1 [Example 33, 4-[3-ethoxy-5-(3-fluoro-4-methoxyphenyl)-1,2,4-triazole-1-yl]-benzenesulfonamide] | 23.7% | 10.5%
19 | CCSc1nc(-c2ccccc2)n(-c2ccc(S(N)(=O)=O)cc2)n1 [Example 34, 4-(3-ethylthio-5-phenyl-1,2,4-triazole-1-yl)-benzenesulfonamide] | 31.2% | 9.5%
20 | CCCOc1nc(-c2ccc(OC)cc2)n(-c2ccc(S(N)(=O)=O)cc2)n1 [Example 35, 4-[3-propoxy-5-(4-methoxyphenyl)-1,2,4-triazole-1-yl]-benzenesulfonamide] | 23.4% | 16.1%
21 | CCCOc1nc(-c2ccc(F)cc2)n(-c2ccc(S(N)(=O)=O)cc2)n1 [Example 36, 4-[3-propoxy-5-(4-fluorophenyl)-1,2,4-triazole-1-yl]-benzenesulfonamide] | 27% | 17.2%
22 | COc1ccc(-c2nc(OC3CCCC3)nn2-c2ccc(S(N)(=O)=O)cc2)cc1 [Example 37, 4-[3-cyclopentyloxy-5-(4-methoxyphenyl)-1,2,4-triazole-1-yl]-benzenesulfonamide] | 12% | 22.3%
23 | NS(=O)(=O)c1ccc(-n2nc(OC3CCCC3)nc2-c2ccc(F)cc2)cc1 [Example 38, 4-[3-cyclopentyloxy-5-(4-fluorophenyl)-1,2,4-triazole-1-yl]-benzenesulfonamide] | 17.4% | 33.1%
24 | COc1ccc(-c2nc(OC3CCCCC3)nn2-c2ccc(S(N)(=O)=O)cc2)cc1 [Example 39, 4-[3-cyclohexyloxy-5-(4-methoxyphenyl)-1,2,4-triazole-1-yl]-benzenesulfonamide] | 15.5% | 20.7%
25 | NS(=O)(=O)c1ccc(-n2nc(OC3CCCCC3)nc2-c2ccc(F)cc2)cc1 [Example 40, 4-[3-cyclohexyloxy-5-(4-fluorophenyl)-1,2,4-triazole-1-yl]-benzenesulfonamide] | 16.2% | 16.2%
26 | COc1ccc(-c2nc(OCC#N)nn2-c2ccc(S(N)(=O)=O)cc2)cc1 [Example 41, 4-[3-cyanomethoxy-5-(4-methoxyphenyl)-1,2,4-triazole-1-yl]-benzenesulfonamide] | 27.7% | 15.5%
27 | N#CCOc1nc(-c2ccc(F)cc2)n(-c2ccc(S(N)(=O)=O)cc2)n1 [Example 42, 4-[3-cyanomethoxy-5-(4-fluorophenyl)-1,2,4-triazole-1-yl]-benzenesulfonamide] | 26.6% | 13.3%
28 | C#CCOc1nc(-c2ccc(OC)cc2)n(-c2ccc(S(N)(=O)=O)cc2)n1 [Example 43, 4-[3-prop-2-ynyloxy-5-(4-methoxyphenyl)-1,2,4-triazole-1-yl]-benzenesulfonamide] | 30.4% | 16.7%
29 | C#CCOc1nc(-c2ccc(F)cc2)n(-c2ccc(S(N)(=O)=O)cc2)n1 [Example 44, 4-[3-prop-2-ynyloxy-5-(4-fluorophenyl)-1,2,4-triazole-1-yl]-benzenesulfonamide] | 27.2% | 14.5%
